From patent US7504537B2, “Hydroxamic acid derivative and MMP inhibitor containing the same as active ingredient” (Dainippon Sumitomo Pharma Co., Ltd., priority 2001, dated 2009)

Legend:
Type in all cases: biochemical
MMP-3 = target: T1, MMP-3 (Homo sapiens, UniProt P08254); experiment: Test 1 Test on MMP-3 inhibiting activity (fluorogenic peptide substrate); details: activated MMP-3, 37° C.; read-out: MMP-3 inhibition activity value
T1 construct: C-terminal truncated cDNA in which the cDNA encodes human prostromelysin; made in house; host or cells: E. coli
T1 sequence (P08254 100-272 limits assumed): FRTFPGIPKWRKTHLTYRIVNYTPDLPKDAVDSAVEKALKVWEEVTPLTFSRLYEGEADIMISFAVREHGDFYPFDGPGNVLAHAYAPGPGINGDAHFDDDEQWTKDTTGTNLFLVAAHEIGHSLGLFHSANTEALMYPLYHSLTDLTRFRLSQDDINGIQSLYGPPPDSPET
Description: Test 1 Test on MMP-3 Inhibiting Activity
C-terminal truncated cDNA in which the cDNA encodes human prostromelysin, was subcloned (proMMP-3, cDNA sequence in Nature, 348, 699-704 (1990)), was expressed in E. coli and then, the expressed protein was purified in accordance with the method described in Biochemistry 30, 6476-6483 (1991). proMMP-3 activation was carried out by treating with 1 mM 4-aminophenyl mercuric acetate for 60 minutes at 37° C.
Enzyme activity test was conducted by the method of C. G. Knight (FEBS Lett., 296(3), 263-266 (1992)).
A mixture of activated MMP-3 (20 nM, 10 μl), buffer solution (70 μl, pH 7.5 solution containing 100 mM Tris-HCl solution, 10 mM calcium chloride solution, 100 mM sodium chloride solution and 0.05% Brij-35 solution), MOCAc-Pro-Leu-Gly-Leu-A2pr(DNP)-Ala-Arg-NH2 in 0.1% DMSO solution (100 μM, 10 μl) and a test compound in DMSO solution was incubated for 1.5 hours at 37° C. The mixture was put on a 96 well-plate (100 μl/well) and the plate was cultured at 37° C. The enzyme activity in the presence of the compound was measured based on fluorescence intensity (λex 320 nm, λem 405 nm), and IC50 was calculated.

MMP-2 = target: T2, MMP-2 (Homo sapiens, UniProt P08253); experiment: Test 3 MMP-2 inhibition activity test (gelatinase activity assay kit); details: activated human MMP-2, biotin labeled gelatin
T2 construct: purchased Boeringer Manheim (Roche Diagnostics)
T2 sequence (P08253 110-660): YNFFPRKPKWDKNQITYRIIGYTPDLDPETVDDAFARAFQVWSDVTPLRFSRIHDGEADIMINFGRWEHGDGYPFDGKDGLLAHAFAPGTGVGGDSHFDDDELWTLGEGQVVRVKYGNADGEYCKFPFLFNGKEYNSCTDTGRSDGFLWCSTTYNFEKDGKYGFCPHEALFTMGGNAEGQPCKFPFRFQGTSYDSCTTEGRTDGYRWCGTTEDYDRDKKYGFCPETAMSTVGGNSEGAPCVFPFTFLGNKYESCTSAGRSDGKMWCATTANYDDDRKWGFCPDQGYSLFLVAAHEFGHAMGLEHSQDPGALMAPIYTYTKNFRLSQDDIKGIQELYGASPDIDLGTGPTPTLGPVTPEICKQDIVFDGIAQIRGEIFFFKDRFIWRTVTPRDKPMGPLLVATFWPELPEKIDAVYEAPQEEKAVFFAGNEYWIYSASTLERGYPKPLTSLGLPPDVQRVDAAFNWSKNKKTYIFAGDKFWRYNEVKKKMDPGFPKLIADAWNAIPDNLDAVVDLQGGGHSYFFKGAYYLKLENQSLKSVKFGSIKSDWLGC
Description: TTC buffer solution was attached to a MMP-2 enzyme assay kit, and the solution was made of 50 mM tris, 1 mM calcium chloride solution and 0.05% Triton X-100 solution, and was adjusted to pH 7.5.
Test 3 MMP-2 Inhibition Activity Test
MMP-2 enzyme assay kit (Gelatinase Activity Assay, Roche.Diagonistics) was used.
A mixture of 1.2U human MMP-2 (20 μl, Boeringer Manheim 30U freezed dry product), TTC buffer (980 μl) and 2.5 mM 4-aminophenyl mercuric acetate solution (144 μl) was incubated at 37° C. for 30 minutes and then it was preserved under ice cooling until use.
A mixture of DMSO solution (2 μl) containing a definite concentration of the compound, biotin labeled gelatin (188 μl) and activated MMP-2 solution (10 μl) was put on a 96 well-assay plate (protein nonabsorbance type), well agitated and incubated at 37° C. for 1 hour. This solution was transferred to a Streptavidin-coating plate and agitated at 15° C, to 30° C. for 30 minutes. And then the solution was washed with TTC buffer solution (200 μl) three times. Thereto was added Streptavidin-POD (200 μl) and the mixture was agitated at 15° C. to 25° C. for 60 minutes, followed by washing with TTC buffer (200 μl) three times. Then, ABTS solution (200 μl) was added thereto and after standing at room temperature for 40 minutes, furuorescence intensity was measure at 405 nm and IC50 was calculated.
In case of the above test, a control and a blank were prepared when the well was prepared as mentioned below. DMSO (2 μl) was used as a control instead of a sample solution. In the case of a blank, DMSO (2 μl) instead of the sample solution and the solution (10 μl) prepared in the same manner as preparation of activated MMP-2 solution but without adding 1.2U human MMP-2, instead of activated MMP-2 solution (10 μl), were used.

MMP-14 (MT1-MMP) = target: T3, MMP-14 (MT1-MMP) (Homo sapiens, UniProt P50281); experiment: Test 5 MMP-14 (MT1-MMP) inhibiting activity test; details: human recombinant MT1-MMP, 37° C.; read-out: MMP-14 inhibition activity value
T3 construct: purchased Biogenesis, supplied by Cosmobio (Nakarai Tesku)
Description: Test 5 MMP-14 (MTI-MMP) Inhibiting Activity Test
Human recombinant MTI-MMP used the product prepared by Biogenesis and supplied by Cosmobio (Nakarai Tesku).
An assay buffer solution (70 μl, pH 7.5 solution containing 0.1M Tris-HCl solution, 0.1M calcium chloride solution, 10 mM sodium chloride solution and 0.05% Brij-35 solution), 0.1 w/w % a compound in DMSO (10 μl), MMP substrate solution (MOCAc-Pro-Leu-Gly-Leu-A2pr(DNP)-Ala-Arg-NH2 (Peptide Lab.) diluted with the assay buffer solution (50 μM, 10 μl)) and human recombinant MT1-MMP (0.4 pg/10 μl/well) were well agitated under stirring. The enzyme activity of the mixture was measured based on fluorescence intensity (λex 320 nm/λem 405 nm) by a fluorescence reader. After the mixture was incubated at 37° C. for 0.5 hour, the fluorescence intensity (λex 320 nm/λem 405 nm) was measured every hour, and IC50 was calculated.
The inhibition value was calculated by withdrawing average value of blank well from fluorescence mean value of well in which MT1-MMP was added. As the blank was used the mixed solution prepared by adding assay buffer (10 μl) instead of MT1-MMP solution.

Compound	IC50 (MMP-3) [nM]	IC50 (MMP-2) [nM]	IC50 (MMP-14 (MT1-MMP)) [nM]
CC(C)CN(C1(C(=O)NO)CCOCC1)S(=O)(=O)c1ccc(Oc2ccc(S(C)(=O)=O)cc2)cc1 [Example 15, N-Hydroxy-4-[isobutyl({4-[4-(methylsulfonyl)phenoxy]phenyl}sulfonyl)amino]tetrahydro-2H-pyrane-4-carboxamide]	5.2	300	> 5000
CS(=O)(=O)c1ccc(Oc2ccc(S(=O)(=O)N(Cc3ccccc3)C3(C(=O)NO)CCOCC3)cc2)cc1 [Example 12, 4-[Benzyl({4-[4-(methylsulfonyl)phenoxy]phenyl}sulfonyl)amino]-N-hydroxytetrahydoro-2H-pyrane-4-carboxamide]	16	< 100	893
CCOC(=O)CN(C1(C(=O)NO)CCCC1)S(=O)(=O)c1ccc(Oc2ccc(S(C)(=O)=O)cc2)cc1 [Example 23, Ethyl N-{1-[(hydroxyamino)carbonyl]cyclopentyl}-N-({4-[4-(methylsulfonyl)phenoxy]phenyl}sulfonyl)glycinate]	21.6	2100	> 5000
CS(=O)(=O)c1ccc(Oc2ccc(S(=O)(=O)NCC(=O)NO)cc2)cc1 [Example 13, N′^1′-Hydroxy-N′^2′-({4-[4-(methylsulfonyl)phenoxy]phenyl}sulfonyl)glycinamide]	13.5	900	> 5000
